Test results as given in paper PMC8944987, “In Vivo Efficacy of SQ109 against Leishmania donovani, Trypanosoma spp. and Toxoplasma gondii and In Vitro Activity of SQ109 Metabolites” (Biomedicines, 2022).
pEC50, pIC50: −log10 of the molar value. Where two headings read alike, the source gives them in different places.

Assays:
[1] = tested on: T. b. brucei Lister strain 427 bloodstream form (BSF); experiment: In vitro activity assay for T. brucei (resazurin growth inhibition); type: cell-based; conditions: Trypanosoma brucei; for EC50: bloodstream forms, read-out: T. brucei BSF EC50 (converted)
[2] = tested on: L. donovani promastigotes; experiment: L. donovani promastigotes assay (resazurin); type: cell-based; conditions: for pEC50: read-out: L. donovani EC50 (PRO)
[3] = Host cell toxicity in the T. cruzi amastigote assay; type: cell-based; conditions: human, amastigote host cells; read-out: T. cruzi Dm28c CC50 (U2OS)
Protocol: (§1) U2OS human osteosarcoma cells were maintained in DMEM supplemented with high glucose, 10% FBS, and 1% P/S at 37 °C with 5% CO2 in air. […] Cell images were acquired by an automated image analyzer (Operetta, Perkin Elmer Technology, Waltham, MA, USA); analysis included at least 1000 cells in five fields per well. For the imaging of infected cells and parasites, Draq-5 was observed under a 20× air objective. An image analysis algorithm (Columbus, Perkin Elmer Technology) was used to detect the Draq-5 signal in the nuclei of cells and parasites as described in a previous article and shown in Supplementary Figure S1 [20]. The number of parasites was defined by the value of the number of parasites in infected cells of the acquired image.

[4] = tested on: intracellular T. cruzi Dm28c amastigotes in U2OS; experiment: T. cruzi intracellular amastigotes assay in U2OS (image based); type: cell-based; conditions: Trypanosoma cruzi; for pEC50: read-out: T. cruzi Dm28c EC50 (AMA)
Protocol: as §1

[5] = tested on: T. cruzi Dm28c epimastigotes; experiment: T. cruzi epimastigotes assay (resazurin); type: cell-based; conditions: Trypanosoma cruzi, read-out: T. cruzi Dm28c EC50 (EPI)
Protocol: The exponential growth phase of epimastigotes were treated with different concentrations of drugs or 0.1% DMSO as negative control and incubated for 3 days at 28 °C. The viability of parasites was quantified with resazurin as described in the T. brucei assay.

[6] = tested on: T. cruzi; design: method as in earlier work; conditions: amiodarone acting alone; reported previously; ref 5 (b3); cited from earlier work
[7] = tested on: T. cruzi Dm28c; experiment: T. cruzi acute in vivo mouse model; design: species or system BALB/c mice; conditions: 100 mg/kg p.o.
Text: BALB/c mice were infected with TCT of T. cruzi Dm28c (10^7 cells) by i.p. injection. Five days post-infection, infected mice were sacrificed to collect BSF of T. cruzi. BALB/c mice were intraperitoneally infected with BSF of T. cruzi Dm28c (5 × 10^4 cells). Five days post-infection, BALB/c mice were infected with previously collected 2nd-round BSF cells (3 × 10^4 cells). Mice were divided into groups (n = 10) and treated orally with drugs for 5 consecutive days for 2 weeks by starting from day 2 post-infection administration of DPBS, 100 mg/kg of benznidazole, or 100 mg/kg of SQ109 via p.o. route, respectively. Parasitemia was evaluated every 2 days for 5 weeks by blood collection from the mouse tail vein, and survival was monitored for 2 months. Mice showing impaired health status were euthanized.

[8] = tested on: THP-1 human monocyte cell line; experiment: Host cell toxicity in the L. donovani amastigote assay; type: cell-based; conditions: 3 days of compound incubation; Figure 2F
Protocol: The THP-1 human monocyte cell line was grown in RPMI-1640 medium (Welgene, Gyeongsangbuk-do, Republic of Korea) supplemented with 10% FBS and 1% P/S. For differentiation, THP-1 cells were treated for 3 days with 50 ng/mL of PMA [20]. […] An image analysis was performed as described in the T. cruzi assay (Figure S2).

[9] = tested on: L. donovani amastigotes; experiment: L. donovani (VL) in vivo mouse model, liver LDU; design: species or system BALB/c mice; conditions: 30 mg/kg
Protocol: BALB/c mice (n = 5) were injected with 2 × 10^7 hamster spleen-derived L. donovani amastigotes via the retro-orbital venous sinus route. From day 7 post-infection, groups of mice were treated using the drug vehicle only, miltefosine (30 mg/kg), or SQ109 (30, 50, 100 mg/kg). On day 16 post-infection, all animals were humanely euthanized and assessed microscopically using Giemsa-stained liver imprints. […] The LDU values for the drug-treated samples were compared to those of the untreated samples.

[10] = tested on: intracellular L. donovani amastigotes in THP-1; experiment: L. donovani intracellular amastigotes assay in THP-1 (image based); type: cell-based; conditions: Leishmania donovani, 72 h; differentiated THP-1 host cells, 3 days of compound incubation; Figure 2F
[11] = Leishmania donovani, promastigotes

SMILES | EC50 [1] [µM] | pEC50 [2, 11] | CC50 at 3 days [3] [µM] | pEC50 ([4]; amastigotes in U2OS) | pEC50 ([5]; epimastigotes) | further results
NCCNC1C2CC3CC(C2)CC1C3 (centres unmarked) [Compound 7] | 4.6 | 4.66 | > 100 | 4.60 | 4.25 | –
C/C(=C\CC/C(C)=C/CNCCNC1C2CC3CC(C2)CC1C3)CO (centres unmarked) [Compound 9] | 5.4 | 5.54 | 27 | 5.31 | 4.55 | –
C/C(=C\CNCCNC1C2CC3CC(C2)CC1C3)CCC(=O)C(C)C (centres unmarked) [Compound 12] | 2 | 6.26 | 32 | 5.16 | 4.35 | –
CC(C)=CCC/C(C)=C/C=O [Compound 13] | 2.3 | < 4.00 | > 100 | < 4.00 | < 4.00 | –
CC(C)=CCC/C(C)=C/C(=O)O [Compound 14] | 13 | < 4.00 | > 100 | < 4.00 | < 4.00 | –
CC(C)=CCCC(C)=CC=NO [Compound 15a] | > 200 | < 4.00 | > 100 | < 4.00 | < 4.00 | –
CC(C)=CCCC1(C)CC=NO1 (centres unmarked) [Compound 15b] | > 200 | < 4.00 | > 100 | < 4.00 | < 4.00 | –
ON=C1C2CC3CC(C2)CC1C3 [Compound 16] | > 200 | < 4.00 | > 100 | < 4.00 | < 4.00 | –
CC(C)=CCC/C(C)=C/CN [Compound 17] | 32 | 4.68 | > 100 | 4.40 | < 4.00 | –
NC1C2CC3CC(C2)CC1C3 (centres unmarked) [Compound 18] | 71 | 4.29 | > 100 | 4.30 | < 4.00 | –
O=C1C2CC3CC(C2)CC1C3 [Compound 19] | – | – | > 100 | – | – | pEC50 ([1]; read-out: T. brucei BSF EC50): < 3.70; pEC50 ([2]; Leishmania donovani): < 4.00; pEC50 ([4]; U2OS): < 4.00; pEC50 [5]: < 4.00
CC(C)=CCC/C(C)=C/CNCCN [Compound 20] | 2.2 | 5.22 | > 100 | < 4.00 | < 4.00 | –
CC(C)=CCC/C(C)=C/CNCCNC1C2CC3CC(C2)CC1(O)C3 (centres unmarked) [Compound 21] | 3.2 | 5.90 | 6.8 | 5.52 | 4.85 | pEC50 ([2]; promastigotes): 5.89
CC(C)=CCC/C(C)=C/CNCCNC1C2CC3CC1CC(O)(C3)C2 (centres unmarked) [Compound 22] | 2.9 | 5.45 | 29 | 5.12 | 4.64 | pEC50 ([2]; promastigotes): 5.46
CC(C)=CCC/C(C)=C/CNCCNC1C2CC3CC1CC(C2)C3O (centres unmarked) [Compound 23] | 1.8 | 5.64 | 17 | 5.37 | 4.70 | –
CC(C)=CCC/C(C)=C/CNCCNC1C2CC3CC(C2)C(O)C1C3 (centres unmarked) [Compound 24] | 1.8 | 5.96 | 14 | 5.49 | 4.85 | –
CCCCc1oc2ccccc2c1C(=O)c1cc(I)c(OCCN(CC)CC)c(I)c1 [amiodarone] | – | – | – | – | – | survival in T. cruzi infection [6]: 40%
O=C(Cn1ccnc1[N+](=O)[O-])NCc1ccccc1 [benznidazole] | – | – | – | – | – | survival of T. cruzi infected mice, in words ([7]; 40 days after infection): protected all the mice from death; parasitemia, in words ([7]; entire experimental period): complete suppression of parasitemia; pIC50 ([4]; 72 h, U2OS host cells, 3 days of compound incubation, Figure 2D, read-out: IC50, intracellular T. cruzi amastigote survival): 5.77
CCCCCCCCCCCCCCCCOP(=O)([O-])OCC[N+](C)(C)C [miltefosine] | – | – | – | – | – | host cell (THP-1) toxicity, in words [8]: no host cell toxicity was observed at the highest tested dose; parasite burden in liver (LDU) ([9]; 5 days of treatment): 142 ± 24 LDU; parasite reduction ([9]; versus vehicle-treated group): 87.5%; pIC50 ([2]; Leishmania donovani, 72 h, Figure 2E, read-out: IC50, L. donovani promastigote growth): 6.77; pIC50 [10]: 5.82
N=C(N)c1ccc(OCCCCCOc2ccc(C(=N)N)cc2)cc1 [pentamidine, reference compound] | – | – | – | – | – | pIC50 ([1]; 3 days (72 h) of compound incubation, Figure 2A, read-out: IC50, T. brucei trypomastigote viability): 6.82
